Results on eleven compounds are retold here after US11897862B2 (Gilead Sciences, Inc., priority 2022, dated 2024).

Each structure is given as a SMILES string. Bounds are passed on as bounds.

What all share (type): cell-based
Experiment [1] has as its target T1, IKZF2 (Homo sapiens, UniProt Q96SW2+Q9UKS7). Description: HEK293 HiBiT in vitro degradation of IKZF2. Also on record: expressed in transfected cells. Particulars: for Dmax: HEK293, HEK293 HiBiT; for DC50: 18-24 hr incubation, normalized to DMSO control, read-out: IKZF2 EC50. In outline: (§1)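 Read-out: Nano-Glo lytic HiBiT luminescence after 18-24 h compound exposure at 37 °C, fitted to EC50 and Dmax. Cells were Flp-In T-REx HEK293 expressing linker-HiBiT fused to the C-terminus of each target, doxycycline-induced ([…] final) overnight beforehand.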
Target sequence in this assay (Q9UKS7 1-500 isoform Q9UKS7-2): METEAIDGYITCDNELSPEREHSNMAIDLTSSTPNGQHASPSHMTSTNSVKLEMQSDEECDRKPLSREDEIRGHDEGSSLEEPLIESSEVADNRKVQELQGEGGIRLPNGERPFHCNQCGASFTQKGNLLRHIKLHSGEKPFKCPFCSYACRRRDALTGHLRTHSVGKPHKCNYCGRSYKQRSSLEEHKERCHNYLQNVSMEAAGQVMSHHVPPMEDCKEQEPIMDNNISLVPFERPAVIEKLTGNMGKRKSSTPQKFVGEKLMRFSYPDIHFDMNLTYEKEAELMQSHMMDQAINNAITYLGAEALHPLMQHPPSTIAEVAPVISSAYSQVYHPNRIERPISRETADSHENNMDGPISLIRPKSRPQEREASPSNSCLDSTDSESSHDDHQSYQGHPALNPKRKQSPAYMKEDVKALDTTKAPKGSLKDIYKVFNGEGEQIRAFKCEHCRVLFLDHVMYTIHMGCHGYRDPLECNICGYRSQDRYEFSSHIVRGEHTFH
Target sequence in this assay (Q96SW2 whole entry, the tested form may be a part): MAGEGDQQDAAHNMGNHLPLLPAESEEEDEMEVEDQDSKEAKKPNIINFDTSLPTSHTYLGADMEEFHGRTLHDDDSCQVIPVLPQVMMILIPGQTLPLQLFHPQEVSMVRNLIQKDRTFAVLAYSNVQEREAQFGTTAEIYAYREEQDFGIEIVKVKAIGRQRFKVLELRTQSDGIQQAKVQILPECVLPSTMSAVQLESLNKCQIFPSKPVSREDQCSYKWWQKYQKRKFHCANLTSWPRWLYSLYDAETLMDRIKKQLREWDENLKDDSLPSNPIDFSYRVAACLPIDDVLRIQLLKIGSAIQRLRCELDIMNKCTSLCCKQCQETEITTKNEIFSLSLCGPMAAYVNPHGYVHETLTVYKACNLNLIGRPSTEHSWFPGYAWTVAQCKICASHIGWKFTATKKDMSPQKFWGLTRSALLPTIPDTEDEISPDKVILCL
Target sequence in this assay (Q16531 whole entry partner, the tested form may be a part): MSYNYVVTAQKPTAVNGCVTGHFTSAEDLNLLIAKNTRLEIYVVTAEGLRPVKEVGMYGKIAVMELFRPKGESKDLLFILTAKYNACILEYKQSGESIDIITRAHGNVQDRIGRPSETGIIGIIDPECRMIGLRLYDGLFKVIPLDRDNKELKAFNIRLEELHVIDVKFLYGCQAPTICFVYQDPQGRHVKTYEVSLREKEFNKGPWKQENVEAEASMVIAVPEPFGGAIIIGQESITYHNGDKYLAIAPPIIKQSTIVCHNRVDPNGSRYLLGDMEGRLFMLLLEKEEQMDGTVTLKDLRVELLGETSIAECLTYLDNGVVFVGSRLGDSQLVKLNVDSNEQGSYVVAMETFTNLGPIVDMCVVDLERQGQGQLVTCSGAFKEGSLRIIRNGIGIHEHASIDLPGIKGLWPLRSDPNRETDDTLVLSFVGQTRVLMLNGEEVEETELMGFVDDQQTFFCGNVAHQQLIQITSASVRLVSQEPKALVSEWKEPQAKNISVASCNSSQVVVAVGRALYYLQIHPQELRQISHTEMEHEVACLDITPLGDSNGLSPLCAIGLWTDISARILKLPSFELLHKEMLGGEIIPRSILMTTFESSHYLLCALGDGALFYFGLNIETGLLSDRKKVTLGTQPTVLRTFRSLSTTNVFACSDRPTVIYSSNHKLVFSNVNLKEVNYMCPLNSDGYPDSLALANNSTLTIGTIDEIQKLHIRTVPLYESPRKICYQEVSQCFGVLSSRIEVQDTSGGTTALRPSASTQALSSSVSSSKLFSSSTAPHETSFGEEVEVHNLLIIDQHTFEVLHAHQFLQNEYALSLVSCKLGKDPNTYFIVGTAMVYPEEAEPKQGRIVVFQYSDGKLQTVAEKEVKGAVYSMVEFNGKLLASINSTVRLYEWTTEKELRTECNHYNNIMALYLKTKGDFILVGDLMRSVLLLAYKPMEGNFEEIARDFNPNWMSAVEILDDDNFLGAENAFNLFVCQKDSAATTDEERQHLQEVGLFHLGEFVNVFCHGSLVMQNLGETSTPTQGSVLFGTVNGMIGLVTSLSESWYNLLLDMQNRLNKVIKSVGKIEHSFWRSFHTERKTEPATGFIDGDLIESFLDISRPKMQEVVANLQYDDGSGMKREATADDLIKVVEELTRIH

Another experiment concerns the target T2, IKZF1 (Homo sapiens, UniProt Q13422+Q96SW2).
T2 construct: expressed in transfected cells
The experiment in a line: HEK293 HiBiT in vitro degradation of IKZF1. The note with it: for Dmax: HEK293, HEK293 HiBiT, maximum degradation at the highest concentration tested; for DC50: HEK293 HiBiT, 18-24 hr incubation, normalized to DMSO control, read-out: IKZF1 EC50. In outline: as §1
A general note: With HiBiT, luminescence reflects the tagged protein that the partner subunit can reach.

Experiment [2] deals with T1, IKZF2. Description: Human whole blood IKZF2 degradation (flow cytometry, CD4/CD25/Foxp3+ Treg cells). Also noted: endogenous in cells. Particulars: 24 hrs incubation, IKZF2 MFI in CD4/CD25/Foxp3+ Treg cells, flow cytometry; for DC50: read-out: IKZF2 EC50. The protocol: In vitro IKZF2 potency was assessed in human whole blood using a fluorescence activated cell sorting assay. 50 μL of freshly collected blood from healthy human volunteers was incubated with Immunocult CD3/CD28 activator (Stemcell Technologies) and solution of testing compounds (serially-diluted) for 24 hrs hours at 37° C. in 384 well plates. The treated red blood cells were removed by adding lysis buffer (BD cat #558049) then the cells were fixed, permeabilized, and stained with anti-CD4 (BD cat #564419), anti-Foxp3 (Invitrogen cat #48-4777-42), anti-IKZF1 (Cell Signaling Tech. cat #33462S), and anti-IKZF2(Cell Signaling Tech. cat #65432S) antibodies. The median fluorescent intensity (MFI) of IKZF2 signal from CD4/CD25/Foxp3+ Treg cells and MFI of IKZF1 signal from CD4+ T cells were quantified in the same samples by flow cytometry using an Attune instrument. EC50 and Dmax of each compound was determined by plotting the MFI and DMSO treated wells were used as control. Asterisks (*) indicate examples for which data represents an average of n≥3 repeat experiments.
Target sequence in this assay (Q9UKS7 whole entry, the tested form may be a part): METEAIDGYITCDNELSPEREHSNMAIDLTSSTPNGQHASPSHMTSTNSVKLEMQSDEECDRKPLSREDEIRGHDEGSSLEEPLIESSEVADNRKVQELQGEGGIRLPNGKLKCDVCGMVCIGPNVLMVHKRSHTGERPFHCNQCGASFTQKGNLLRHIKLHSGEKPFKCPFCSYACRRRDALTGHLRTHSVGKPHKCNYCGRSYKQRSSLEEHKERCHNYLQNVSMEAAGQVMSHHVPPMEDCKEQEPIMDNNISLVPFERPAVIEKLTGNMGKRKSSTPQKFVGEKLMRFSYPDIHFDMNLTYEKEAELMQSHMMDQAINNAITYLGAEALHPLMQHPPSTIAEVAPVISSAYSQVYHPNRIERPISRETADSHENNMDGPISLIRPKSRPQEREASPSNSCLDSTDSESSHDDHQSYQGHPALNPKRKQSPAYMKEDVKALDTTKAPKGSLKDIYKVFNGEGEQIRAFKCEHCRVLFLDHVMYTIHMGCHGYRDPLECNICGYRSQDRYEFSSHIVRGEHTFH
Target sequence in this assay (Q96SW2 whole entry, the tested form may be a part): as the sequence (Q96SW2 whole entry, the tested form may be a part) above
Target sequence in this assay (Q16531 whole entry partner, the tested form may be a part): as the sequence (Q16531 whole entry partner, the tested form may be a part) above
On the technique in general: A flow cytometer gives signals particle by particle.

Where [3] appears, read: maximum degradation at the highest concentration tested.

T2 sequence (Q13422 whole entry): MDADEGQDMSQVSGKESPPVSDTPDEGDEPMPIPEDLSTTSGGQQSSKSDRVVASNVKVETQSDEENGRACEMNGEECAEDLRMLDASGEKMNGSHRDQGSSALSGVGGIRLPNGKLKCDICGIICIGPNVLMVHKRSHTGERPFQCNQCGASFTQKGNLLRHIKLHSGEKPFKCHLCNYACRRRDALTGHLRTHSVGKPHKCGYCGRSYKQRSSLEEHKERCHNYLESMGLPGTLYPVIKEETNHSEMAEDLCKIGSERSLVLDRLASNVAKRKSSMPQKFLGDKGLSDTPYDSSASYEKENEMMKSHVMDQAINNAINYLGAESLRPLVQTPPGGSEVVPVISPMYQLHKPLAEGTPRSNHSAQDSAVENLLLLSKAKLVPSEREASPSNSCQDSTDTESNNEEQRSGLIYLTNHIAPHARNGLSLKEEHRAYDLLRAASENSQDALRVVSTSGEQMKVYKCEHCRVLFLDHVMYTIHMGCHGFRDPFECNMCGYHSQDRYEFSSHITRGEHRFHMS
T2 sequence (Q96SW2 whole entry): as the sequence (Q96SW2 whole entry, the tested form may be a part) above
T2 sequence (Q16531 whole entry partner): as the sequence (Q16531 whole entry partner, the tested form may be a part) above

On to `CC1(C)CC(N[C@H]2CCCC[C@@H]2Cc2ccc3c(c2)CN(C2CCC(=O)NC2=O)C3=O)CCO1` (stereo partly shown) [Example 109], for which the values for the Dmax at IKZF2 [1] (setting [3]), on IKZF1 and at IKZF2 [2] were 96%, 34% and 97%, respectively. Besides, the DC50 at IKZF2 [1] (HEK293 HiBiT) came out at 5 nM; on IKZF1, 103 nM; on IKZF2 [2], 1 nM.

As for `O=C1CCC(N2Cc3c(ccc(C[C@H]4CCCC[C@@H]4NCC4COC4)c3F)C2=O)C(=O)N1` (stereo partly shown) [Example 114], the greatest degradation seen (Dmax) (as a rule, the greatest extent of degradation seen) at IKZF2 [1] (setting [3]) is 98%; on IKZF1, 28%; at IKZF2 [2], 98%. In addition, the DC50 at IKZF2 [1] (HEK293 HiBiT) was 8 nM; at IKZF1, 88 nM; at IKZF2 [2] it was 5 nM.

Turning to `N#CC1CCC(N[C@H]2CCCC[C@@H]2Cc2ccc3c(c2)CN(C2CCC(=O)NC2=O)C3=O)CC1` (single isomer, unassigned) [Example 267], the Dmax worked out at 98% on IKZF2 [1] (setting [3]), 44% on IKZF1 and 97% at IKZF2 [2]. Besides, the values for the DC50 at IKZF2 [1] (HEK293 HiBiT), on IKZF1 and at IKZF2 [2] were 4 nM, 109 nM and 2 nM, respectively.

In the case of `O=C1CCC(N2Cc3cc(C[C@H]4CCCC[C@@H]4NC4CCC5(CC4)CC5)ccc3C2=O)C(=O)N1` (stereo partly drawn) [Example 28, 3-(1-oxo-5-(((1R,2S)-2-(spiro[2.5]octan-6-ylamino)cyclohexyl)methyl)isoindolin-2-yl)piperidine-2,6-dione], the Dmax on IKZF2 [1] (setting [3]) is 97%; at IKZF1, 56%; at IKZF2 [2] it was 99%. For the same compound, the DC50 turned out to be 2 nM on IKZF2 [1] (HEK293 HiBiT), 327 nM at IKZF1 and 3 nM on IKZF2 [2].

Turning to `[2H]C1(N[C@H]2CCCC[C@@H]2Cc2ccc3c(c2)CN(C2CCC(=O)NC2=O)C3=O)CCC(F)(F)CC1` (stereo partly shown) [Example 119], the Dmax worked out at 98% at IKZF2 [1] (setting [3]), 54% at IKZF1 and 92% at IKZF2 [2]. The values for the DC50 at IKZF2 [1] (HEK293 HiBiT), at IKZF1 and at IKZF2 [2] were 2 nM, 46 nM and 2 nM, respectively.

With `CC(CC(C)(C)C)N[C@H]1CCCC[C@@H]1Cc1ccc2c(c1)CN(C1CCC(=O)NC1=O)C2=O` (stereo partly shown) [Example 221], the DC50 at IKZF2 [1] (HEK293 HiBiT) is 2 nM; on IKZF1, more than 1000 nM; at IKZF2 [2], 4 nM. In addition, the “IKZF2 Dmax” value at IKZF2 [1] (HEK293 HiBiT, maximum degradation at the highest concentration tested) is given as 98%; on IKZF2 [2], 101%.

Take `CC(N[C@H]1CCCC[C@@H]1Cc1ccc2c(c1)CN(C1CCC(=O)NC1=O)C2=O)C12CC(C1)C2` (stereo partly shown) [Example 138]: the Dmax is 98% at IKZF2 [1] (setting [3]) and 96% at IKZF2 [2]. Further, the DC50 was 4 nM at IKZF2 [1] (HEK293 HiBiT), more than 1000 nM at IKZF1 and 3 nM at IKZF2 [2].

With `CC(C)N[C@H]1CCCC[C@@H]1Cc1ccc2c(c1)CN(C1CCC(=O)NC1=O)C2=O` (stereo partly drawn) [Example 7, 3-(5-(((1R,2S)-2-(isopropylamino)cyclohexyl)methyl)-1-oxoisoindolin-2-yl)piperidine-2,6-dione], the Dmax on IKZF2 [1] (setting [3]) came out at 99%; on IKZF1 it was 36%; on IKZF2 [2], 98%. In addition, the DC50 was found to be 4 nM at IKZF2 [1] (HEK293 HiBiT), 462 nM on IKZF1 and 2 nM on IKZF2 [2].

Turning to `O=C1CCC(N2Cc3c(ccc(C[C@H]4OCCC[C@@H]4NC4CCCC4)c3F)C2=O)C(=O)N1` (stereo partly shown) [Example 148], the values for the Dmax on IKZF2 [1] (setting [3]) and on IKZF2 [2] were 94% and 92%, respectively. Also, the results for the DC50 at IKZF2 [1] (HEK293 HiBiT), at IKZF1 and on IKZF2 [2] were 7 nM, more than 1000 nM and 6 nM, respectively.

As to `O=C1CCC(N2Cc3cc(C[C@H]4CCCC[C@@H]4NCC45CC(C4)C5)ccc3C2=O)C(=O)N1` (stereo partly shown) [Example 63], the greatest degradation seen (Dmax) was determined as 89% on IKZF2 [1] (setting [3]) and 91% on IKZF2 [2]. The DC50 on IKZF2 [1] (HEK293 HiBiT) is 19 nM; on IKZF1, more than 1000 nM; at IKZF2 [2] it was 19 nM.

For the compound `O=C1CCC(N2Cc3cc(C[C@H]4OCCC[C@@H]4NC4CCCCC4)ccc3C2=O)C(=O)N1` (stereo partly drawn) [Example 95, 3-(5-(((2R,3S)-3-(cyclohexylamino)tetrahydro-2H-pyran-2-yl)methyl)-1-oxoisoindolin-2-yl)piperidine-2,6-dione], the Dmax on IKZF2 [1] (setting [3]) amounted to 88%; on IKZF2 [2], 89%. For the same compound, the DC50 on IKZF2 [1] (HEK293 HiBiT) was 16 nM; on IKZF1, more than 10000 nM; on IKZF2 [2], 11 nM.
